Assay results taken from publication PMC10698194 (Nature Communications, 2023).
Several values for one entry are separate records, joined by “and”; a condition that tells them apart may be missing. Identical values can stand only once. Like-named read-outs stand apart in the source and are kept apart here. Bridge positions count the residues as written; N and C are the ends. Square brackets hold non-standard residues; d marks the D form. Peptide text beside a SMILES is read from it. * marks the point of attachment. X1 = C=CCN1CC[C@]23c4c5ccc(O)c4O[C@H]2[C@H](N*)CC[C@@]3(O)[C@H]1C5

Tests used:
mouse MOR = biological target: T1, mouse MOR (Mus musculus, UniProt P42866); assay: Schild regression vs DAMGO in cAMP assay, HEK293 cells; format: cell-based; details: for log (A'/A-1): Schild plot Figure S14c; for average functional affinity: from pA2
T1 construct: expressed in transfected cells

human MOR [1] = biological target: T2, human MOR (Homo sapiens, UniProt P35372); assay: [35S]GTPγS binding assay, CHO membranes; format: biochemical; details: [35S]GTPγS
T2 construct: expressed in transfected cells

human MOR [2] = biological target: T2, human MOR; assay: Schild regression vs DAMGO in [35S]GTPγS binding assay, CHO membranes; format: biochemical; details: for log (A'/A-1): Schild plot Figure S14d
mouse KOR, GαoB = mouse KOR, GαoB (Mus musculus, UniProt P33534); assay: TRUPATH BRET G protein assay, GαoB; format: cell-based; details: read-out: Emax (%) GαoB
mouse KOR, Gαz = mouse KOR, Gαz (Mus musculus, UniProt P33534); assay: TRUPATH BRET G protein assay, Gαz; format: cell-based; details: Gαz subtype
male SWISS mice = assay: Paw thickness 60 min after formalin injection; format: in vivo, mouse; details: for Paw thickness: individual mice, listed as DNCP-ß-NalA (1)
Method: Sixty min after injection of formalin to male mice, maximal paw thickness of the right hind paw (i.e., formalin-injected hind paw) was measured using a digital micrometer (FixPoint, Vienna, Austria). Data are expressed in mm.

human KOR WT [3] = biological target: T3, human KOR WT (Homo sapiens, UniProt P41145); assay: cAMP inhibition assay normalized to salvinorin A; format: cell-based; details: KOR WT; normalized to salvinorin A
T3 construct: FLAG; expressed in transfected cells; host or cells: HEK293T, transient

human KOR Q115A [4] = biological target: T4, human KOR Q115A (Homo sapiens, UniProt P41145, Q115A); format: cell-based; details: HEK-293T
T4 construct: FLAG; expressed in transfected cells; host or cells: HEK293 / HEK293T, transient

human KOR I135A [5] = biological target: T5, human KOR I135A (Homo sapiens, UniProt P41145, I135A); format: cell-based; details: HEK-293T
T5 construct: FLAG; expressed in transfected cells; host or cells: HEK293 / HEK293T, transient

human KOR I316A [6] = biological target: T6, human KOR I316A (Homo sapiens, UniProt P41145, I316A); format: cell-based; details: HEK-293T
T6 construct: FLAG; expressed in transfected cells; host or cells: HEK293 / HEK293T, transient

human KOR Y320A [7] = biological target: T7, human KOR Y320A (Homo sapiens, UniProt P41145, Y320A); format: cell-based; details: HEK-293T
T7 construct: FLAG; expressed in transfected cells; host or cells: HEK293 / HEK293T, transient

human KOR E209A [8] = biological target: T8, human KOR E209A (Homo sapiens, UniProt P41145, E209A); format: cell-based; details: HEK-293T, KOR E209A
T8 construct: FLAG; expressed in transfected cells; host or cells: HEK293 / HEK293T, transient

human KOR H304A = biological target: T9, human KOR H304A (Homo sapiens, UniProt P41145, H304A); format: cell-based; details: HEK-293T
T9 construct: FLAG; expressed in transfected cells; host or cells: HEK293T

human KOR Y312A [9] = biological target: T10, human KOR Y312A (Homo sapiens, UniProt P41145, Y312A); format: cell-based
T10 construct: FLAG; expressed in transfected cells; host or cells: HEK293T

human KOR WT [10] = biological target: T3, human KOR WT; assay: BRET β-arrestin-2 biosensor assay; format: cell-based; details: KOR WT
human KOR Q115A [11] = biological target: T4, human KOR Q115A; assay: BRET β-arrestin-2 biosensor assay; format: cell-based
human KOR I135A [12] = biological target: T5, human KOR I135A; assay: BRET β-arrestin-2 biosensor assay; format: cell-based
human KOR M142A = biological target: T11, human KOR M142A (Homo sapiens, UniProt P41145, M142A); assay: BRET β-arrestin-2 biosensor assay; format: cell-based
T11 construct: FLAG; expressed in transfected cells; host or cells: HEK293 / HEK293T, transient

human KOR I316A [13] = biological target: T6, human KOR I316A; assay: BRET β-arrestin-2 biosensor assay; format: cell-based
human KOR Y320A [14] = biological target: T7, human KOR Y320A; assay: BRET β-arrestin-2 biosensor assay; format: cell-based
human KOR E209A [15] = biological target: T8, human KOR E209A; assay: BRET β-arrestin-2 biosensor assay; format: cell-based; details: KOR E209A
human KOR F293A = biological target: T12, human KOR F293A (Homo sapiens, UniProt P41145, F293A); assay: BRET β-arrestin-2 biosensor assay; format: cell-based
T12 construct: FLAG; expressed in transfected cells; host or cells: HEK293 / HEK293T, transient

human KOR L309A = biological target: T13, human KOR L309A (Homo sapiens, UniProt P41145, L309A); assay: BRET β-arrestin-2 biosensor assay; format: cell-based; details: KOR L309A
T13 construct: FLAG; expressed in transfected cells; host or cells: HEK293T

human KOR Y312A [16] = biological target: T10, human KOR Y312A; assay: BRET β-arrestin-2 biosensor assay; format: cell-based
mouse KOR [17] = biological target: T14, mouse KOR (Mus musculus, UniProt P33534); assay: cell-based; parameters: expressed in transfected cells; details: HEK-293T, read-out: Emax cAMP assay
Target sequence in this assay (P33534 whole entry): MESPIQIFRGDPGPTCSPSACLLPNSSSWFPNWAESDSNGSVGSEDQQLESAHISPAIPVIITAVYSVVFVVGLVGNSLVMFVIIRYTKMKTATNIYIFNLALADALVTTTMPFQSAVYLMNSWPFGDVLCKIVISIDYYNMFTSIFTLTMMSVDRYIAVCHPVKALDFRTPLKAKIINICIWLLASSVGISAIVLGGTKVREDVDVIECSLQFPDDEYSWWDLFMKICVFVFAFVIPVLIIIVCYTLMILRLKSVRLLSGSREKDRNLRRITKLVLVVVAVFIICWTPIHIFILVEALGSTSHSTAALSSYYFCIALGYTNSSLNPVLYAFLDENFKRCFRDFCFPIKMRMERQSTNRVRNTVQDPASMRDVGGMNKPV

human KOR = human KOR (Homo sapiens, UniProt P41145); assay: cell-based; parameters: expressed in transfected cells; host or cells: HEK293, transient; details: HEK293, read-out: Emax β-arrestin-1 recruitment
mouse KOR [18] = biological target: T14, mouse KOR; assay: cell-based; parameters: expressed in transfected cells; host or cells: HEK293T, transient; details: HEK-293T, read-out: Emax β-arrestin-2 recruitment
Target sequence in this assay (P33534 whole entry): as above
Target sequence in this assay (P32121 whole entry partner): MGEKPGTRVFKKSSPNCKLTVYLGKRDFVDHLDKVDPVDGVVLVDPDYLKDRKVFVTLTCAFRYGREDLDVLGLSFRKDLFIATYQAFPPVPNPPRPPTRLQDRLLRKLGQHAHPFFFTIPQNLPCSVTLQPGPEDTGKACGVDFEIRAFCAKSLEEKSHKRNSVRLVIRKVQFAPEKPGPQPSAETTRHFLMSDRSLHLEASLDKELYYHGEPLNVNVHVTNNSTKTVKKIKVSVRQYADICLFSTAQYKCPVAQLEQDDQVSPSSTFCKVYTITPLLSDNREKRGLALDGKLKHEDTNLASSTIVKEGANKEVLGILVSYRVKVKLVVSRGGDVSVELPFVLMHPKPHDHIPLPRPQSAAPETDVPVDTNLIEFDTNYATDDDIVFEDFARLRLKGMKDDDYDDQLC

T10 sequence (P41145 whole entry Y312A): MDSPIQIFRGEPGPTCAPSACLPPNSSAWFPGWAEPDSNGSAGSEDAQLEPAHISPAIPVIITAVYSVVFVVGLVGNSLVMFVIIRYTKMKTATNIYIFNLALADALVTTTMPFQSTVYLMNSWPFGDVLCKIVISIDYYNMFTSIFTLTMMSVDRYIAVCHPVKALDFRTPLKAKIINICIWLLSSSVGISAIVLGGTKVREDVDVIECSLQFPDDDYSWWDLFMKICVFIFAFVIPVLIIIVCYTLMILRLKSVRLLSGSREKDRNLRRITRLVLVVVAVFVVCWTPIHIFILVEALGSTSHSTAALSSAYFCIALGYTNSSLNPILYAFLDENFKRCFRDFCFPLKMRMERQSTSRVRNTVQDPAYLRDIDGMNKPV
T2 sequence (P35372 whole entry): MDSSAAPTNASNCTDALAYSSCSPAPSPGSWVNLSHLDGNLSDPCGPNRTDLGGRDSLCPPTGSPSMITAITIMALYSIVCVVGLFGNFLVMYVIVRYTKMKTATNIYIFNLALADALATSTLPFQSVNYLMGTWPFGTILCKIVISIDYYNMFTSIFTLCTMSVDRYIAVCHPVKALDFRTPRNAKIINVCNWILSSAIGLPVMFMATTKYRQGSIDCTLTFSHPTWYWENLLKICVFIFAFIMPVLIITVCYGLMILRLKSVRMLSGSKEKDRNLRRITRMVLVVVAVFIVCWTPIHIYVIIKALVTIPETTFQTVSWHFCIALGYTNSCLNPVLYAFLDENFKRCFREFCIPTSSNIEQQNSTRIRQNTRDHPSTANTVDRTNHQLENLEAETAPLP
T5 sequence (P41145 whole entry I135A): as the sequence (P41145 whole entry Y312A) above, with I135A, A312Y counted along it
T1 sequence (P42866 whole entry): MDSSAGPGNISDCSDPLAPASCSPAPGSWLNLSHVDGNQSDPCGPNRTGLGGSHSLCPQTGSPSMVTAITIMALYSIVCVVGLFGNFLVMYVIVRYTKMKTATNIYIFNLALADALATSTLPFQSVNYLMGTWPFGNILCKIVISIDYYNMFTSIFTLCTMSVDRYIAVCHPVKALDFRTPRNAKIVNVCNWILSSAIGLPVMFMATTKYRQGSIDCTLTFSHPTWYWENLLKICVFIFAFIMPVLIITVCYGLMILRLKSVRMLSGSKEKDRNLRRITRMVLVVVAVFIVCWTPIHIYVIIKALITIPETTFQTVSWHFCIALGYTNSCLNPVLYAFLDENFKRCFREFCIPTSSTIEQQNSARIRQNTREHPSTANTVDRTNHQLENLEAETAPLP
T7 sequence (P41145 whole entry Y320A): as the sequence (P41145 whole entry Y312A) above, with A312Y, Y320A counted along it
T3 sequence (P41145 whole entry): as the sequence (P41145 whole entry Y312A) above, with A312Y counted along it
T8 sequence (P41145 whole entry E209A): as the sequence (P41145 whole entry Y312A) above, with E209A, A312Y counted along it
T6 sequence (P41145 whole entry I316A): as the sequence (P41145 whole entry Y312A) above, with A312Y, I316A counted along it
T4 sequence (P41145 whole entry Q115A): as the sequence (P41145 whole entry Y312A) above, with Q115A, A312Y counted along it
T9 sequence (P41145 whole entry H304A): as the sequence (P41145 whole entry Y312A) above, with H304A, A312Y counted along it
T11 sequence (P41145 whole entry M142A): as the sequence (P41145 whole entry Y312A) above, with M142A, A312Y counted along it
Sequence of human KOR (P41145 whole entry): as the sequence (P41145 whole entry Y312A) above, with A312Y counted along it
Sequence of mouse KOR, GαoB (P33534 whole entry): as the sequence (P33534 whole entry) above
Sequence of mouse KOR, GαoB (P09471 2-354 partner): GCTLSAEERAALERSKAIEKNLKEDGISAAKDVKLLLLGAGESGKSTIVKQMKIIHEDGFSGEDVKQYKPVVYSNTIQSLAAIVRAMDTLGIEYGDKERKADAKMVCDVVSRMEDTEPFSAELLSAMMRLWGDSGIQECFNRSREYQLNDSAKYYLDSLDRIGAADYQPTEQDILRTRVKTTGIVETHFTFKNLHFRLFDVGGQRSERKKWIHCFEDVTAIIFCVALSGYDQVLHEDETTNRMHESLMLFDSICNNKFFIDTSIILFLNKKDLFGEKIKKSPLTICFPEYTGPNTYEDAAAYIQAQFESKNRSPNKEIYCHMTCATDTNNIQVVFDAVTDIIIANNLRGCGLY
Sequence of mouse KOR, Gαz (P33534 whole entry): as the sequence (P33534 whole entry) above
Sequence of mouse KOR, Gαz (P19086 2-355 partner): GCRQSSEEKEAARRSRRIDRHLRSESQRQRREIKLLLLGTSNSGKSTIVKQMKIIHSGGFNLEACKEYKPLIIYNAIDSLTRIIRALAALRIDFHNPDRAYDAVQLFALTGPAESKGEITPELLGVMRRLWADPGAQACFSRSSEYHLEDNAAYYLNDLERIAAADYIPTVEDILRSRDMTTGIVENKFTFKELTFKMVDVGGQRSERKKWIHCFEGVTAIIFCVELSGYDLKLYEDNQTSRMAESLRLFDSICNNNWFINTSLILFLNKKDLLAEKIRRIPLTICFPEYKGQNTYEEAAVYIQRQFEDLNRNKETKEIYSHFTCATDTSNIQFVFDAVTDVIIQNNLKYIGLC
T12 sequence (P41145 whole entry F293A): as the sequence (P41145 whole entry Y312A) above, with F293A, A312Y counted along it
T13 sequence (P41145 whole entry L309A): as the sequence (P41145 whole entry Y312A) above, with L309A, A312Y counted along it

C=CCN1CC[C@]23c4c5ccc(O)c4O[C@H]2[C@H](NC(=O)[C@@H](Cc2ccccc2)NC(=O)[C@@H](NC(=O)[C@@H]2CSCC(=O)N[C@@H](Cc4ccc(O)cc4)C(=O)N[C@@H](C)C(=O)N[C@H](Cc4ccc(O)cc4)C(=O)N[C@@H]([C@@H](C)O)C(=O)N[C@@H]([C@@H](C)O)C(=O)N2)[C@@H](C)O)CC[C@@]3(O)[C@H]1C5 [DNCP-β-NalA(1)] ({CH2CO}-YA[dY]TTCT[dF]-X1; thioether N-6)
log (A'/A-1) (mouse MOR; log B -6.5): 2.497
log (A'/A-1) (mouse MOR; log B -7): 1.821
log (A'/A-1) (mouse MOR; log B -7.5): 1.578
log (A'/A-1) (mouse MOR; log B -8): 1.074
average functional affinity (mouse MOR): 0.8 nM
average functional affinity (mouse MOR; authors' response in peer review file): 0.794 nM
Schild linear regression slope (mouse MOR; vs DAMGO): 0.9
EC50 (M) MOR (human MOR [1]): no stimulation up to 10 µM
log (A'/A-1) (human MOR [2]; log B -7): 1.45
log (A'/A-1) (human MOR [2]; log B -7.5): 0.36
log (A'/A-1) (human MOR [2]; log B -8): -0.07
average functional affinity (human MOR [2]; from pA2): 13 nM
Schild linear regression slope (human MOR [2]; vs DAMGO): 1.5
Emax (mouse KOR, GαoB): 76 ± 6%
highest potency (mouse KOR, Gαz): picomolar range
Paw thickness (male SWISS mice; 0.8 µmol/kg): 3.47 mm and 4.51 mm and 3.9 mm and 4.44 mm and 3.64 mm and 4.36 mm
reduction of paw thickness vs saline (male SWISS mice; 1.9 µmol kg^−1 s.c.): 12 ± 2%
Paw thickness (male SWISS mice; 1.9 µmol/kg): 4.04 mm and 4.14 mm and 3.53 mm and 3.7 mm and 3.82 mm
reduction of paw thickness vs saline (male SWISS mice; 3.8 µmol kg^−1 s.c.): 17 ± 3%
antagonism of anti-inflammatory effect by nor-BNI (male SWISS mice; nor-BNI 13.6 µmol kg^−1 s.c. pretreatment): significantly reversed by pre-treatment with nor-BNI
Emax (human KOR WT [3]): 100.6 ± 0.9%
Emax (human KOR Q115A [4]): 90.2 ± 1.46%
Emax (human KOR I135A [5]): 45.8 ± 1.95%
Emax (human KOR I316A [6]): 85.75 ± 0.72%
Emax (human KOR Y320A [7]): 86.8 ± 2.05%
Emax (human KOR E209A [8]): 99.31 ± 0.52%
Emax (human KOR H304A): 92.57 ± 0.43%
Emax (human KOR Y312A [9]; HEK-293T, KOR Y312A): 82.46 ± 0.65%
loss of potency in G protein activation (human KOR Y312A [9]; Y312A vs WT): 4 fold
Emax (human KOR WT [10]): 35.3 ± 1.13%
Emax (human KOR Q115A [11]): 60 ± 1.71%
BRET-βarresin2 recruitment (human KOR I135A [12]; Log [ligand] (M) -5, single replicates): 0.1789 and 0.1779 and 0.1349 and 0.1369 (2×)
BRET-βarresin2 recruitment (human KOR I135A [12]; Log [ligand] (M) -6, single replicates): 0.1739 and 0.1699 and 0.1669 and 0.1229 and 0.1319 and 0.1359
BRET-βarresin2 recruitment (human KOR I135A [12]; Log [ligand] (M) -7, single replicates): 0.1699 (2×) and 0.1609 and 0.1309 and 0.1289 and 0.1299
BRET-βarresin2 recruitment (human KOR I135A [12]; Log [ligand] (M) -8, single replicates): 0.1669 and 0.1659 and 0.1729 and 0.1269 and 0.1239 and 0.1349
BRET-βarresin2 recruitment (human KOR I135A [12]; Log [ligand] (M) -9, single replicates): 0.1669 (2×) and 0.1649 and 0.1249 and 0.1239 and 0.1259
BRET-βarresin2 recruitment (human KOR I135A [12]; Log [ligand] (M) -10, single replicates): 0.1689 and 0.1639 (2×) and 0.1279 and 0.1309 and 0.1339
BRET-βarresin2 recruitment (human KOR I135A [12]; Log [ligand] (M) -11, single replicates): 0.1699 and 0.1669 and 0.1689 and 0.1249 and 0.1279 (2×)
BRET-βarresin2 recruitment (human KOR I135A [12]; Log [ligand] (M) -12, single replicates): 0.1519 and 0.1569 (2×) and 0.1249 (2×) and 0.1259
Emax (human KOR M142A): 91.7 ± 11.6%
Emax (human KOR I316A [13]): 22.7 ± 1.59%
Emax (human KOR Y320A [14]): 83.5 ± 4.81%
Emax (human KOR E209A [15]): 87.3 ± 1.31%
Emax (human KOR F293A): 26.5 ± 1.01%
Emax (human KOR L309A): 62.2 ± 1.08%
Emax (%) β-arrestin-2 (human KOR Y312A [16]): devoid of arrestin recruitment
BRET-βarr2 recruitment (human KOR Y312A [16]; Log [ligand] (M) -5, replicates): 0.2189 and 0.2059 and 0.2229 and 0.2169
BRET-βarr2 recruitment (human KOR Y312A [16]; Log [ligand] (M) -7, replicates): 0.2499 (2×) and 0.2479 and 0.2279 and 0.2289 and 0.2269
BRET-βarr2 recruitment (human KOR Y312A [16]; Log [ligand] (M) -8, replicates): 0.2479 and 0.2309 and 0.2579 and 0.2119 and 0.2179 and 0.2099
BRET-βarr2 recruitment (human KOR Y312A [16]; Log [ligand] (M) -9, replicates): 0.2369 and 0.2529 and 0.2379 and 0.2309 and 0.2499 and 0.2069
BRET-βarr2 recruitment (human KOR Y312A [16]; Log [ligand] (M) -10, replicates): 0.2429 and 0.2419 and 0.2489 and 0.2119 and 0.2309 and 0.2049
BRET-βarr2 recruitment (human KOR Y312A [16]; Log [ligand] (M) -11, replicates): 0.2319 and 0.2289 and 0.2379 and 0.2249 and 0.2229 and 0.2019
BRET-βarr2 recruitment (human KOR Y312A [16]; Log [ligand] (M) -12, replicates): 0.2219 and 0.2179 and 0.2429 and 0.2239 and 0.2299 and 0.2119
Emax (mouse KOR [17]): 92 ± 1%
Emax (human KOR): 30%
Emax (mouse KOR [18]): 41%
